Results taken from US20130296347A1, “Compositions and Methods for Prophylaxis and Treatment of Addictions” (Omeros Corporation, priority 2007, published 2013).
Where “and” joins values, the source holds several entries; their conditions need not be identical. Identical values can stand only once. Entries after “also recorded” stand apart in the source; their conditions may differ.

What was measured:
msP rats [1] = assay: Acute voluntary ethanol intake, free choice 10% alcohol 24 hours a day; assay type: in vivo, rat; details: for ethanol intake, drug alone (post-hoc): low dose given at 12 hours and 1 hour before access, partner drugs at doses of the examples; for ethanol intake in a pilot study: low dose: fluoxetine 3.0, mirtazapine 5.0, topiramate 30.0, levetiracetam 100.0, gabapentin 60.0 mg/kg OS, ondansetron 1.0, antalarmin […] IP
Experimental: MsP rats were first trained to drink 10% (w/v) alcohol for 24 hours a day (free choice between water and ethanol). […] Before starting the treatment, rats were trained to gavage administration procedures for three days, during which they received vehicle (distilled water). […] Drinking experiments started at the beginning of the dark cycle. Alcohol, water and food intakes were monitored at 2, 8 and 24 hours after ethanol was made available.
Before starting the treatment, rats were trained to gavage and IP administration procedures for three days. Experiment was conducted in a between subject design (n=22). […] Drinking experiments started at the beginning of the dark cycle. Alcohol, water and food intakes were monitored at 2, 8 and 24 hours after ethanol was made available.
The drinking experiments were conducted at the beginning of the dark cycle, and alcohol, water and food intakes were monitored at 2, 8 and 24 hours after ethanol was made available.
(§1) MsP rats were first trained to drink 10% (w/v) alcohol for 24 hours a day (free choice between water and ethanol). […] Rats treated with drug vehicles served as a control. Before starting the treatment, rats were trained to gavage administration for three days, during which they received drugs vehicle (distilled water). […] Drinking experiments started at the beginning of the dark cycle. Alcohol, water, and food intakes were monitored at 2, 8 and 24 hours after ethanol was made available.
as §1, with “water” for “water,”
as §1, with “water” for “water,”
as §1, with “water” for “water,”
as §1, with “water” for “water,”
as §1, with “water” for “water,”

[2] = system: Marchigian Sardinian alcohol-preferring (msP) rats; assay: Subchronic (7 days) voluntary ethanol intake, 10% alcohol available 24 hours/day; assay type: in vivo, rat; details: 7 days; naltrexone […] IP alone or with pioglitazone 10.0 or 30.0 mg/kg OS
Experimental: (§2) At the beginning of the experiments, msP rats were allowed free choice between water and 10% (v/v) alcohol 24 h/day for at least 15 days. The fluids were offered in graduated drinking tubes equipped with metallic drinking spouts. The position (to the right or left) of alcohol and water drinking tubes was changed daily to avoid the development of side preference. Water and food were available ad libitum, while alcohol access was either restricted to 2 hours/day (Examples 1 and 2) or was available 24 hours/day (Examples 3 and 4). Alcohol, water and food intakes were measured.
(§3) […]. Before starting the treatment, rats were trained to gavage administration procedures for three days, during which they received vehicle (distilled water).
Alcohol, water and food intakes were monitored at 2, 8 and 24 hours. Fluids and food intakes were monitored for three additional days after the end of the drug treatment period.
[…]. According to a between-subject design, four groups of msP rats (N=9/group) were prepared as described in Example 3. […] […]. Alcohol, water and food intakes were monitored at 2, 8 and 24 hours. Fluids and food intakes were monitored for three additional days after the end of the drug treatment period.

msP rats [3] = assay: Cue-induced reinstatement of alcohol seeking; assay type: in vivo, rat; details: naltrexone 0.25 and 1.0 mg/kg 1 hour before test
Experimental: Cue-induced reinstatement of alcohol-seeking behaviour experimental procedures consisted of three phases: (1) conditioning phase; (2) extinction phase; and (3) reinstatement phase, as described below.
For the conditioning phase, at the completion of the fading procedure (see above), in 30 min daily sessions, animals were trained to discriminate between 10% alcohol and water. Beginning with self-administration training at the 10% alcohol concentration, discriminative stimuli (SD) predictive of alcohol versus water availability were presented during the alcohol and water self-administration sessions, respectively. The discriminative stimulus for alcohol consisted of the odour of an orange extract (S^+) whereas water availability (i.e. no reward) was signalled by an anise extract (S^−). The olfactory stimuli were generated by depositing six to eight drops of the respective extract into the bedding of the operant chamber. In addition, each lever-press resulting in delivery of alcohol was paired with illumination of the chamber's house light for 5 sec (CS^+). The corresponding cue during water sessions was a 5 second tone (70 dB) (CS). Concurrently with the presentation of these stimuli, a 5 sec. time-out period was in effect, during which responses were recorded but not reinforced. The olfactory stimuli serving as S^+ or S^− for alcohol availability were introduced one minute before extension of the levers and remained present throughout the 30-min. sessions. The bedding of the chamber was changed and bedding trays were cleaned between sessions. During the first three days of the conditioning phase, the rats were given alcohol sessions only. Subsequently, alcohol and water sessions were conducted in random order across training days, with the constraint that all rats received a total of 10 alcohol and 10 water sessions.
For the extinction phase, after the last conditioning day, rats were subjected to 30-min extinction sessions for 15 consecutive days. During this phase, sessions began by extension of the levers without presentation of the SD. […]

[4] = system: Marchigian Sardinian alcohol-preferring (msP) rats; assay: Acute voluntary ethanol intake, alcohol access restricted to 2 hours/day; assay type: in vivo, rat
Experimental: as §2
. After acquisition of a stable baseline of ethanol intake (6-8 g/kg bw; daily), alcohol access was restricted to 2 hours a day at the beginning of the dark phase. Water and food were freely available.
as §3
Treatments were carried out at intervals of at least three days. […] Drinking experiments were conducted right at the beginning of the dark cycle. Alcohol, water and food intakes were monitored at 30, 60, 90 and 120 minutes after ethanol was made available.
The msP rats (n=8) were prepared for the study as described in Example 1. After acquisition of a stable baseline of ethanol intake, alcohol access was restricted to 2 hours a day at the beginning of the dark phase. Water and food were freely available. […]. The experiment was conducted using a within subject counterbalanced Latine square design where each animal received all drug doses.
These experiments were conducted at the beginning of the dark cycle and alcohol, and water and food intakes were monitored at 30, 60, 90 and 120 minutes after ethanol was made available.

msP rats [5] = assay: Yohimbine-induced (stress) reinstatement of alcohol seeking; details: naltrexone 0.25 and 1.0 mg/kg IP 1 hour before test
Description: Stress-induced reinstatement of alcohol-seeking experimental procedures consisted of three phases: (1) training phase; (2) extinction phase; and (3) reinstatement phase, as described below.
For the training phase, after completion of the fading procedure, msP rats were trained to self-administer 10% (v/v) alcohol for 15 days in 30-min daily sessions under a FR1 schedule of reinforcement. During the infusion, a stimulus house light was turned on for 5 s (time out; TO).
For the extinction phase, after the last alcohol self-administration session, animals were subjected to 30-min extinction sessions for 15 consecutive days.
The day after the last extinction session, rats were subjected to the reinstatement test.
Animals received all drug treatments according to a counterbalance Latin square design. A 3-day interval, during which animals were subjected to extinction sessions, was allowed between drug tests.

alcoholic patients = assay: Observational study of alcohol abuse in human patients; assay type: in vivo
Description: ACT)+psychotherapy. […] Patients were instructed to record in a personal logbook the number of drinks per day and the time of the day drinks occurred. At the end of the study, the logbooks were returned to the clinical personnel who analyzed the data. […] In addition, biochemical parameters to ascertain alcohol detoxification and to measure recovery of physiological functions (i.e., hepatic function) were monitored monthly. Hematological parameters measured included: mean corpuscular volume (MCV); gamma-GT; aspartate aminotransferase (AST); alanine aminotransferase (ALT); and carbohydrate-deficient transferring (CDT). MCV and CDT are biomarkers for ethanol consumption, and GGT, ALT and AST are biomarkers for hepatic functionality. Data were analyzed by analysis of variance followed by Newman-Keuls post hoc tests when appropriate.

heavy tobacco smokers [6] = assay: Pilot clinical study in heavy tobacco smokers; assay type: in vivo, human
heavy tobacco smokers [7] = assay: Pilot clinical study in heavy tobacco smokers; assay type: in vivo, human; set-up: overall smoking reduction / inhibition of smoking prior to dropping out: concentration or dose not given beside the values; details: for Percent inhibition of smoking: baseline data expressed as 100%: T = 0, smoking before entering the treatment; for Percent inhibition of smoking: baseline data expressed as 100% / Percent inhibition of smoking: individual patients; for craving score (visual analogic craving scale): over treatment
Experimental: Data were recorded for two months, during which patients were seen by the physician every other week. Patients were instructed to record in a personal logbook the number of cigarettes per day and the time of the day smoking occurred. At the end of the study, the logbooks were returned to the clinical personnel who analyzed the data. […] During the first month of treatment, every two weeks, ACTH and cortisol levels were also monitored to evaluate HPA activation before and during treatment.

Long Evans rats = assay: Yohimbine-induced reinstatement of nicotine seeking; assay type: in vivo, rat; details: yohimbine 2.0 mg/kg/ml; p<0.001
Experimental: Stress and anxiety are major factors in resuming nicotine use in former abstinent users. […] Reinstatement experiments and relative drug treatments were performed every third day. Between reinstatements, extinction baseline was re-established.

CD mice [8] = details: morphine 30 mg/kg IP twice a day
Experimental: Morphine hydrochloride was purchased from Salars (Milano, Italy). Morphine (30 mg/kg) was dissolved in NaCl 9% and was injected intraperitoneally (IP) twice a day at the indicated doses in a volume of 0.2 ml per mice.

CD mice [9] = assay: Tail-flick test, morphine-induced analgesic tolerance; assay type: in vivo, mouse; details: morphine 30 mg/kg IP twice a day
Experimental: All procedures were conducted in adherence to the European Community Council Directive for Care and Use of Laboratory Animals.
Mice were divided into 6 groups. Group 1 (n=8) received drug vehicles (veh/veh). […] Animals were treated twice daily (between 9:00 and 10:00 a.m. and 9:00 and 10:00 p.m.).
Morphine hydrochloride was purchased from Salars (Milano, Italy). Morphine (30 mg/kg) was dissolved in NaCl […] and was injected intraperitoneally (IP) twice a day at the indicated doses in a volume of 0.2 ml per mice. […] It was dissolved in distilled water and was administered per o.s. at the doses of 10 mg/kg and 30 mg/kg in a volume of 0.6 ml per mice.
Two different tests were used to monitor analgesic responses. The tail-flick test was performed 45 min after the morning injection of morphine, and the tail-immersion test was performed 45 min after the evening injection of morphine.
For the tail-flick test, each mouse was gently restrained in a soft tissue pocket, and the tail (1 cm from the tip) was exposed to a hot light beam. Latency for tail-flick was measured with a 6 seconds cut-off time. For the tail-immersion test, each mouse was restrained in a soft tissue pocket, and the distal half of the tail dipped into a water bath set at 52 C°. Latency for removing the tail from the hot water was measured with a 10 seconds cut-off time.

[10] = pioglitazone 30 mg/day or naltrexone 50 mg/day + psychotherapy

SMILES: CCCCN(CC)c1nc(C)nc2c1c(C)c(C)n2-c1c(C)cc(C)cc1C [antalarmin]
- ethanol intake, drug alone (post-hoc) (msP rats [1]; pioglitazone 10 mg/kg OS): did not significantly modify
- ethanol intake in a pilot study (msP rats [1]): modestly reduced

SMILES: CC1(C)O[C@@H]2[C@@H](CO[C@@]3(COS(N)(=O)=O)OC(C)(C)O[C@@H]23)O1 [topiramate]
- ethanol intake, drug alone (post-hoc) (msP rats [1]; pioglitazone 10 mg/kg OS): did not significantly modify
- ethanol intake in a pilot study (msP rats [1]): did not reduce ethanol intake
- ethanol intake at 2 hours, drug alone (msP rats [1]; pioglitazone 10 mg/kg OS, topiramate 30.0 mg/kg OS, p<0.05): significant reduction

SMILES: NCC1(CC(=O)O)CCCCC1 [gabapentin]
- ethanol intake, drug alone (post-hoc) (msP rats [1]; pioglitazone 10 mg/kg OS): did not significantly modify
- ethanol intake in a pilot study (msP rats [1]): did not reduce ethanol intake

SMILES: O=C1CC[C@@]2(O)[C@H]3Cc4ccc(O)c5c4[C@@]2(CCN3CC2CC2)[C@H]1O5 [naltrexone]
- ethanol intake at 8 and 24 hours [2]: not at 8 and 24 hours
- ethanol intake at 2 hours [2]: significantly reduced
- voluntary ethanol intake, overall [2]: significantly reduced
- cue-induced (conditioned) reinstatement of alcohol-seeking (msP rats [3]): significantly reduced
- ethanol intake at 120 minutes ([4]; naltrexone […] IP alone or with pioglitazone 10 mg/kg OS): did not show significant effects
- ethanol intake at 30, 60, and 90 minutes ([4]; naltrexone […] IP alone or with pioglitazone 10.0 or 30.0 mg/kg OS): significantly reduced
- yohimbine-induced reinstatement of alcohol seeking (msP rats [5]): did not significantly reduce; also recorded: not modified
- hepatic parameters (GGT, ALT, AST) (alcoholic patients; 2-month treatment): ameliorated
- Depression Scale M.A.D.R.S (mean score values) (alcoholic patients; T = 1.2): 18
- Depression Scale M.A.D.R.S (mean score values) (alcoholic patients; T = 1.3): 16
- Depression Scale M.A.D.R.S (mean score values) (alcoholic patients; T = 1.4): 17
- Depression Scale M.A.D.R.S (mean score values) (alcoholic patients; T = 2.1): 17
- Depression Scale M.A.D.R.S (mean score values) (alcoholic patients; T = 2.2): 15
- effect on daily drinks, comparison of drugs (alcoholic patients; first two weeks of treatment, P<0.05): more effective than pioglitazone
- daily ethanol intake (number of daily drinks) (alcoholic patients; [10]): significantly reduced
- number of abstinence days (alcoholic patients; [10]): increased
- OCDS versus controls (alcoholic patients; post hoc, P<0.001): statistically significant difference
- all five blood biomarkers versus controls (psychotherapy alone) (alcoholic patients; post hoc, P<0.001): statistical difference

SMILES: CC(NC(C)(C)C)C(=O)c1cccc(Cl)c1 (centres unmarked) [bupropione]
- Percent inhibition of smoking (heavy tobacco smokers [6]; T = 10 weeks, individual patients, listed as Bup): 40% and 45%
- smoking reduced (heavy tobacco smokers [6]; two bupropione patients after 10 weeks of drug administration): about 40%
- Percent inhibition of smoking: baseline data expressed as 100% (heavy tobacco smokers [7]): 100%
- Percent inhibition of smoking (heavy tobacco smokers [7]; T = 2 weeks of treatment, Pio 15-30 mg/daily, Var 0.5 to 2.0 mg/day): 100%
- Percent inhibition of smoking (heavy tobacco smokers [7]; T = 4 weeks, listed as Bup): 20% and 18% and 15%
- Percent inhibition of smoking (heavy tobacco smokers [7]; T = 6 weeks, listed as Bup): 28% and 20% and 21%
- Percent inhibition of smoking (heavy tobacco smokers [7]; T = 8 weeks): 34%
- inhibition of smoking prior to dropping out (heavy tobacco smokers [7]; bupropione patient who dropped out after four weeks): 20%
- craving score (visual analogic craving scale) (heavy tobacco smokers [7]): less effective

SMILES: O=C(Nc1ccccc1)c1cc([N+](=O)[O-])ccc1Cl [GW9662]
- ethanol intake (msP rats [1]; GW9662 5 μg/rat ICV alone): did not significantly affect
- pioglitazone-induced reduction of ethanol intake (msP rats [1]; GW9662 1.0 and 5.0 mg/kg IP with pioglitazone 30 mg/kg OS): blocked the effect of pioglitazone in a dose related manner
- ethanol drinking (msP rats [1]; GW9662 alone, 1.0 and 5.0 mg/kg IP): did not modify

SMILES: COC(=O)[C@@H]1[C@H]2C[C@H]3c4[nH]c5ccccc5c4CCN3C[C@@H]2CC[C@@H]1O [yohimbine]
- reinstatement of responding compared to extinction (Long Evans rats): significant reinstatement

SMILES: Cc1nccn1CC1CCc2c(c3ccccc3n2C)C1=O (centres unmarked) [ondansetron]
- ethanol intake, drug alone (post-hoc) (msP rats [1]; pioglitazone 10 mg/kg OS): did not significantly modify
- ethanol intake in a pilot study (msP rats [1]): did not reduce ethanol intake

SMILES: CN1CC[C@]23c4c5ccc(O)c4O[C@H]2[C@@H](O)C=C[C@H]3[C@H]1C5 [morphine]
- tail-immersion analgesic effect on test day 9 (CD mice [8]): marginally significant
- tail-immersion latency on day 1, 3, 5, and 7 (CD mice [8]; p<0.01): significantly increased
- time to tail-flick on test days 7 and 9 (CD mice [9]): non significant difference from controls
- time to tail-flick on day 1, 3 and 5 (CD mice [9]; p<0.01): significantly increased

SMILES: CN1CCN2c3ncccc3Cc3ccccc3C2C1 (centres unmarked) [mirtazapine]
- ethanol intake, drug alone (post-hoc) (msP rats [1]; pioglitazone 10 mg/kg OS): did not significantly modify
- ethanol intake in a pilot study (msP rats [1]): did not reduce ethanol intake

SMILES: CNCCC(Oc1ccc(C(F)(F)F)cc1)c1ccccc1 (centres unmarked) [fluoxetine]
- ethanol intake, drug alone (post-hoc) (msP rats [1]; pioglitazone 10 mg/kg OS): did not significantly modify
- ethanol intake in a pilot study (msP rats [1]): did not reduce ethanol intake

SMILES: CC[C@@H](C(N)=O)N1CCCC1=O [levetiracetam]
- ethanol intake, drug alone (post-hoc) (msP rats [1]; pioglitazone 10 mg/kg OS): did not significantly modify
- ethanol intake in a pilot study (msP rats [1]): did not reduce ethanol intake

SMILES: c1cnc2cc3c(cc2n1)[C@@H]1CNC[C@H]3C1 [varenicline]
- Percent inhibition of smoking: baseline data expressed as 100% (heavy tobacco smokers [7]): 100%
- craving score (visual analogic craving scale) (heavy tobacco smokers [7]): highest reduction
- STAI anxiety score (heavy tobacco smokers [7]; over treatment weeks): significantly reduced
- weekly smoked cigarettes compared to bupropione (post hoc) (heavy tobacco smokers [7]; p<0.05): significant difference
- subjects reaching complete abstinence (heavy tobacco smokers [7]; pioglitazone 4 patients, varenicline 3 patients): one
- overall smoking reduction (heavy tobacco smokers [7]; three participants receiving varenicline): 95%
